The source of these data is patent US12440567B2, “Aqueous antibody formulation stabilized by antioxidants for parenteral administration” (AMGEN INC., priority 2007, dated 2025).

The subject of one data set is EPO binding to D11. The data set can be described thus: Binding of EPO to D11 monoclonal antibody after UV-B exposure of the formulation. Set-up: species or system human. To be noted: for EPO binding activity to D11 during UV-B exposure: 0.1 mM antioxidant, UV-B up to 24 hours. How it is done: For the examples below involving exposure to UVB radiation, each sample was exposed to UVB light (λ≈302 nm) for varying times, using a UVP 8W model UVLMS-38 lamp at 4° C. The formulations were then analyzed using size exclusion chromatography high pressure liquid chromatography (SEC-HPLC). Aggregation (measured via SEC-HPLC analysis) and binding (measured using CM5 gold sensor chips) were measured to determine the effect of the antioxidant on aggregation and bioactivity of the therapeutic protein. The binding activity of therapeutic protein to a ligand (e.g. to an antibody or binding partner, or, in cases where the therapeutic was an antibody, binding activity to the specific target antigen or to protein A) was determined as follows. […] The therapeutic protein-binding ligand of interest was injected until the desired immobilization level was achieved (above 5000 response units). Three different therapeutic protein-binding ligands were measured—Antibody A's target antigen, Protein A, and D11 (an antibody that binds to erythropoietin). […] The remaining activated groups were blocked with 1.0 M ethanolamine-HCl, pH 8.5. A standard curve was prepared by using native forms of the therapeutic protein of interest. Native forms of the therapeutic protein were diluted in HBS-EP buffer (pH 7.4) to concentrations between 1 and 5 μg/mL, and then injected on the column, prepared as described above to obtain a standard curve. At the end of each sample run, regeneration buffer was used to wash away any bound therapeutic protein in preparation for subsequent injections. Various UV-stressed antibody formulations were also diluted in HBS-EP buffer (pH 7.4) to a concentration within the standard curve region, and injected to quantitate the loss of bioactivity to its respective ligand-binding partner. […] The protein was exposed to the same conditions as Antibody A and Antibody B for up to 24 hours.

The conditions of data set [1]: cited from earlier work.
The next data set deals with Antibody A (IgG1). The data set can be described thus: SEC-HPLC aggregation of Antibody A (IgG1) after UV-B exposure. Format: physicochemical. The conditions noted are these: for UV-B protection of Antibody A (aggregation, SEC-HPLC): Antibody A 1 mg/mL, pH 4.50 (glycolic, lactic acid) or pH 5.00 (citric acid), UV 1 hr. Background: In gel filtration, larger molecules generally elute earlier.

In data set [2] the test system is Antibody A binding to its target antigen. The data set can be described thus: Binding of Antibody A to its target antigen (CM5 sensor chip) after UV-B exposure of the formulation. To be noted: 20 mM antioxidant; pH 5.20 acetate buffer; 302 nm UV light over 24 hours. How it is done: (§1) For the examples below involving exposure to UVB radiation, each sample was exposed to UVB light (λ≈302 nm) for varying times, using a UVP 8W model UVLMS-38 lamp at 4° C. The formulations were then analyzed using size exclusion chromatography high pressure liquid chromatography (SEC-HPLC). Aggregation (measured via SEC-HPLC analysis) and binding (measured using CM5 gold sensor chips) were measured to determine the effect of the antioxidant on aggregation and bioactivity of the therapeutic protein. The binding activity of therapeutic protein to a ligand (e.g. to an antibody or binding partner, or, in cases where the therapeutic was an antibody, binding activity to the specific target antigen or to protein A) was determined as follows. […] The therapeutic protein-binding ligand of interest was injected until the desired immobilization level was achieved (above 5000 response units). Three different therapeutic protein-binding ligands were measured—Antibody A's target antigen, Protein A, and D11 (an antibody that binds to erythropoietin). […] The remaining activated groups were blocked with 1.0 M ethanolamine-HCl, pH 8.5. […] Various UV-stressed antibody formulations were also diluted in HBS-EP buffer (pH 7.4) to a concentration within the standard curve region, and injected to quantitate the loss of bioactivity to its respective ligand-binding partner.

In data set [3] the test system is Antibody A binding to protein A. In words: Binding of Antibody A to protein A (CM5 sensor chip) after UV-B exposure of the formulation. The conditions noted are these: 20 mM antioxidant; pH 5.20 acetate buffer; 302 nm UV light over 24 hours. How it is done:
as §1

Data set [4] relates to Antibody B binding to protein A. The data set can be described thus: Binding of Antibody B to protein A after UV-B exposure of the formulation. The conditions noted are these: 20 mM additive; pH 6.90 phosphate buffer; 0-24 hours UV-B. How it is done:
(§2) For the examples below involving exposure to UVB radiation, each sample was exposed to UVB light (λ≈302 nm) for varying times, using a UVP 8W model UVLMS-38 lamp at 4° C. The formulations were then analyzed using size exclusion chromatography high pressure liquid chromatography (SEC-HPLC). Aggregation (measured via SEC-HPLC analysis) and binding (measured using CM5 gold sensor chips) were measured to determine the effect of the antioxidant on aggregation and bioactivity of the therapeutic protein.
The binding activity of therapeutic protein to a ligand (e.g. to an antibody or binding partner, or, in cases where the therapeutic was an antibody, binding activity to the specific target antigen or to protein A) was determined as follows. […] The therapeutic protein-binding ligand of interest was injected until the desired immobilization level was achieved (above 5000 response units). Three different therapeutic protein-binding ligands were measured—Antibody A's target antigen, Protein A, and D11 (an antibody that binds to erythropoietin). […] The remaining activated groups were blocked with 1.0 M ethanolamine-HCl, pH 8.5.
A standard curve was prepared by using native forms of the therapeutic protein of interest. Native forms of the therapeutic protein were diluted in HBS-EP buffer (pH 7.4) to concentrations between 1 and 5 μg/mL, and then injected on the column, prepared as described above to obtain a standard curve. At the end of each sample run, regeneration buffer was used to wash away any bound therapeutic protein in preparation for subsequent injections.
Various UV-stressed antibody formulations were also diluted in HBS-EP buffer (pH 7.4) to a concentration within the standard curve region, and injected to quantitate the loss of bioactivity to its respective ligand-binding partner.

The next data set concerns EPO. The data set can be described thus: SEC-HPLC aggregation/degradation of EPO after UV-B exposure. Format: physicochemical, human. To be noted: 20 mM antioxidant; 1 mg/mL EPO, 25 mM sodium phosphate, 125 mM sodium chloride, pH 6.90; 302 nm UV-B 24 hours. The protocol:
as §2, with “protein. The SEC-HPLC conditions were as follows: a G3000 TOSOH SWXL column was used and the flowrate was set at 0.5 mL/min. […] FIG. 4 (EPO), FIG. 5 (anti-streptavidin), and FIG. 6 (Antibody A) show SEC-HPLC chromatograms of each proteins following exposure to 302 nm UV-B light for 24 hours. […] Each formulation was then exposed to 302 nm UV-B light for 24 hours. The protein formulation was then analyzed using SEC-HPLC.” for “protein.”

Data set [5] has as its system anti-streptavidin mAb (IgG2). The data set can be described thus: SEC-HPLC aggregation of anti-streptavidin (IgG2) after UV-B exposure. Format: physicochemical. The conditions noted are these: 20 mM antioxidant; 1 mg/mL anti-streptavidin, 10 mM sodium acetate, 5% sorbitol, pH 5.00; 302 nm UV-B 24 hours.
Data set [6] deals with anti-streptavidin (IgG2 antibody). The data set can be described thus: Thermal aggregation of anti-streptavidin at 52° C. for 10 days. It counts as physicochemical. To be noted: 5% glycerol; anti-streptavidin, 50 mM sodium acetate pH 5.00; 10 days 52° C. The protocol:
The SEC-HPLC conditions were as follows: a G3000 TOSOH SWXL column was used and the flowrate was set at 0.5 mL/min. […] Anti-streptavidin was formulated in 50 mM sodium acetate at pH 5.00. These formulations were not exposed to UV radiation but assessed on their thermal stability.

The next data set concerns Antibody A. In words: Discoloration (yellowing) of Antibody A formulations after UV-B exposure. Format: physicochemical. To be noted: 20 mM and 50 mM pyridoxine; Antibody A 30 mg/mL; UV-B 4 hours.
Data set [7] can be described thus: Color change of the antioxidant upon light. Format: physicochemical. From the text:
P-amino benzoic acid (PABA) has a relatively powerful antioxidant effect.

[8] abbreviates: 100 mM, Antibody A 1 mg/mL pH 5.00, UV 3 hours.
The mark [9] stands for this setting: 20 mM benzoic acid derivative, Antibody A 5 mg/mL, 20 mM sodium acetate pH 5.00, UV-B 4° C. 3 hours.
Setting [10] is: 5 mM or 1 mM preservative, Antibody A 1 mg/mL pH 5.00, UV 3 hours.

Turning to `CC(=O)N[C@@H](Cc1c[nH]c2ccccc12)C(=O)O` (racemic) [N-acetyl-tryptophan], the “EPO activity (binding to D11) after UV-B” value in the data set with EPO binding to D11 (20 mM racemic N-acetyl-tryptophan, 40 kU/mL EPO pH 6.90, UV 0 to 24 hours) is listed as “preserved”. Moreover, the solubility entry in data set [1] is on record as “more soluble than free tryptophan”.
Take `Nc1cc[nH]c(=O)n1` [Cytosine, cytosine]: the “aggregation of Antibody A” value in the data set on Antibody A (IgG1) (25 mM cytosine (FIG. 21), Antibody A 1 mg/mL pH 5.00, UV 1, 2, or 3 hours) is “able to prevent aggregation”.
`O=C(O)CO` [Glycolic acid, glycolic acid]: the “UV-B protection of Antibody A (aggregation, SEC-HPLC)” value with Antibody A (IgG1) (100 mM) is on record as “most effective”.
With `CCCOC(=O)c1cc(O)c(O)c(O)c1` [Propyl gallate, propyl gallate], the “aggregation of Antibody A (SEC-HPLC)” value in the data set on Antibody A (IgG1) (10 mM propyl gallate, pH 5.00, UV 3 hours) was “able to significantly reduce the amount of aggregation”.
Take `O=C(O)/C=C/c1ccc(O)c(O)c1` [caffeic acid]: in the data set on EPO binding to D11, the “EPO binding activity to D11 during UV-B exposure” value was “able to protect the EPO from degradation and preserve its binding activity”.
Turning to `O=C(/C=C/c1ccc(O)c(O)c1)O[C@@H]1C[C@](O)(C(=O)O)C[C@@H](O)[C@H]1O` [chlorogenic acid], the “binding of Antibody A to its target antigen after UV exposure” value in data set [2] was “preserved”. The “binding of Antibody A to protein A after UV exposure” value in data set [3] is listed as “preserved”. The “binding of Antibody B to protein A after UV-B exposure” value in data set [4] was “prevented UV-B induced degradation”. In addition, the “binding of EPO to D11 mAb after UV light exposure” value in the data set on EPO binding to D11 (20 mM antioxidant, up to 24 hours UV) is listed as “able to significantly preserve”. In addition, the “amount of aggregate of EPO (SEC-HPLC)” value in the data set with EPO is “dramatically reduced”. Also, in data set [5], the “amount of aggregate of anti-streptavidin (SEC-HPLC)” value was “dramatically reduced”. Also, in the data set with Antibody A (IgG1) (20 mM antioxidant, 1 mg/mL Antibody A, 10 mM sodium acetate, 9% sucrose, pH 5.20, 302 nm UV-B 24 hours), the “amount of aggregate of Antibody A (SEC-HPLC)” value is “dramatically reduced”.
Turning to `O=C(O)CC(O)(CC(=O)O)C(=O)O` [citric acid], in the data set on Antibody A (IgG1) (100 mM), the “UV-B protection of Antibody A (aggregation, SEC-HPLC)” value is listed as “fairly weak”.
Take `Oc1cc(O)c2c(c1)O[C@H](c1ccc(O)c(O)c1)[C@H](O)C2` [epicatechin]: the solubility result in [1] is listed as “limited solubility”.
Consider `O=C(O)/C=C/C(=O)O` [fumaric acid], for which the “aggregation of Antibody A (SEC-HPLC)” value with Antibody A (IgG1) (setting [8]) was “able to protect Antibody A from aggregation”.
Consider `O=C(O)c1cc(O)c(O)c(O)c1` [gallic acid], for which the “aggregation of Antibody A (SEC-HPLC)” value in the data set with Antibody A (IgG1) (setting [9]) is “able to significantly decrease the amount of aggregation”.
Turning to `OCC(O)CO` [glycerol], the “effect of added glycerol on thermal aggregation caused by ferulic and coumaric acid” value in [6] is “counter-acted that thermal aggregation”.
For `Cc1cccc(O)c1` [m-cresol], the “aggregation of Antibody A (SEC-HPLC)” value with Antibody A (IgG1) (setting [10]) was “able to significantly decrease the amount of aggregation”.
Take `O=C(O)c1ccc(O)cc1` [p-hydroxybenzoic acid]: in the data set on Antibody A (IgG1) (setting [9]), the “aggregation of Antibody A (SEC-HPLC)” value is on record as “able to significantly decrease the amount of aggregation”.
Regarding `Oc1ccccc1` [phenol], the “aggregation of Antibody A (SEC-HPLC)” value with Antibody A (IgG1) (setting [10]) is “able to significantly decrease the amount of aggregation”.
On to `O=C(O)c1ccc(O)c(O)c1` [protocatechuic acid], for which the “aggregation of Antibody A (SEC-HPLC)” value in the data set with Antibody A (IgG1) (setting [9]) was “able to significantly decrease the amount of aggregation”.
Take `Cc1ncc(CO)c(CO)c1O` [pyridoxine]: in the data set with Antibody A (IgG1) (20 mM and 50 mM pyridoxine, Antibody A 30 mg/mL, UV-B 4 hours), the “oxidation and aggregation of Antibody A” value was “did protect the protein from oxidation and aggregation”. Further, the “appearance of formulation upon exposure to UV radiation” value with Antibody A is on record as “caused the formulation to appear yellow”. Further, the “color change upon light” value in data set [7] was “changes to an orange-brown color upon light”. Moreover, in data set [1], the solubility entry was “highly soluble”.
Consider `O=C(O)C1=C[C@@H](O)[C@@H](O)[C@H](O)C1` [shikimic acid], for which, in the data set with Antibody A (IgG1) (setting [8]), the “aggregation of Antibody A (SEC-HPLC)” value is recorded as “able to protect Antibody A from aggregation”.
As for `COc1cc(/C=C/C(=O)O)cc(OC)c1O` [sinapic acid], the “EPO binding activity to D11 during UV-B exposure” value in the data set on EPO binding to D11 was “able to protect the EPO from degradation and preserve its binding activity”.
Take `COc1cc(O)c(C(=O)c2ccccc2)cc1S(=O)(=O)O` [sulisobenzone]: the “EPO binding to D11 after UV” value with EPO binding to D11 (5 mM sulisobenzone, EPO 40 kU/mL, pH 6.90, UV 0-8 hours at 4° C.) was “able to protect EPO binding to D11”.
As to `COc1cc(C(=O)O)cc(OC)c1O` [syringic acid], the “aggregation of Antibody A (SEC-HPLC)” value in the data set with Antibody A (IgG1) (setting [9]) is “able to significantly decrease the amount of aggregation”.
For the molecule `COc1cc(C(=O)O)ccc1O` [vanillic acid], in the data set on Antibody A (IgG1) (setting [9]), the “aggregation of Antibody A (SEC-HPLC)” value is “able to significantly decrease the amount of aggregation”.
Regarding catechin, in the data set on EPO binding to D11 (20 mM catechin, EPO 40 kU/mL, 25 mM sodium phosphate, 125 mM sodium chloride, 0.005% Tween-80, pH 6.90, UV 0-8 hours), the “percent binding of EPO to D11 after UV” value is reported as “able to preserve EPO binding”.
